Tests used:
Atheris nitschei venom = conditions: previously characterized by this laboratory; cited from earlier work
[1] = system: C. scutulatus scutulatus venom; conditions: CORM-2 as single agent; cited from earlier work
[2] = target: Mojave rattlesnake (Crotalus scutulatus scutulatus) venom type A (Crotalus scutulatus scutulatus, UniProt P62023); test: Thrombelastography in human plasma of PLA2-dependent anticoagulant activity of venom; assay type: biochemical
Experimental: With regard to materials and methods, Mojave rattlesnake (Crotalus scutulatus scutulatus) venom type A was originally obtained from the National Natural Toxins Research Center (NNTRC) located at Texas A&M University-Kingsville, Kingsville, TX, U.S.A. A previously unthawed aliquot of this venom used in a previous work (see, Nielsen V G (2019) J Thromb Thrombolysis 48, 256-262) was dissolved in calcium-free phosphate buffered saline (PBS, Sigma-Aldrich, Saint Louis, MO, USA) at a concentration of 50 mg/ml, and had been stored at −80° C. RuCl3 as obtained from Sigma-Aldrich, Saint Louis, MO, USA. Calcium chloride (CaCl2, 200 mM) was obtained from Haemonetics Inc., Braintree, MA, USA. Lastly, pooled normal human plasma (George King Bio-Medical, Overland Park, KS, USA) anticoagulated with sodium citrate (9 parts blood to 1 part 0.105M sodium citrate) stored at −80° C. was utilized in all subsequently described experiments.
Specific volumes of subsequently described plasma and chemical additives varied by condition but summated to 360 μl. Sample composition consisted of 320 μl of plasma; 16.4 μl of PBS, 20 μl of 200 mM CaCl2, and 3.6 μl of one of five subsequently described solutions, which were placed into a disposable cup in a computer-controlled Thrombelastograph® hemostasis system (Model 5000, Haemonetics Inc., Braintree, MA, USA) at 37° C., and then rapidly mixed by moving the cup up against and then away from the plastic pin five times before leaving the mixture between the cup and pin. The following elastic modulus-based parameters previously described (see, Nielsen V G (2019) J Thromb Thrombolysis 48, 256-262; Nielsen V G, Frank N, Matika R W (2018) Biometals 31, 51-59; Nielsen V G, Frank N, Turchioe B J (2019) Blood Coagul Fibrinolysis 30, 379-384; Nielsen V G (2021) J Thromb Thrombolysis, doi: 10.1007/s11239-020-02373-4) were determined: time to maximum rate of thrombus generation (TMRTG): this is the time interval (minutes) observed prior to maximum speed of clot growth; maximum rate of thrombus generation (MRTG): this is the maximum velocity of clot growth observed (dynes/cm^2/second); and total thrombus generation (TTG, dynes/cm^2), the final viscoelastic resistance observed after clot formation. Data were collected until maximum amplitude was reached as determined by the software of the thrombelastographic system.
Experiments involving plasma exposure to RuCl3 and venom utilized the following five experimental conditions: 1) control condition (C)—no venom, 1% addition of PBS (v/v) to plasma; 2) RuCl3 in water condition (R/W)—no venom, 1% addition (v/v) of 100 μM RuCl3 dissolved in water to plasma (final concentration 1 μM); 3) RuCl3 in PBS condition (R/P)—no venom, 1% addition (v/v) of 100 μM RuCl3 dissolved in PBS to plasma (final concentration 1 μM); 4) venom condition (V)—venom addition (v/v, 125 ng/ml final concentration as previously reported) in PBS to plasma; and, 5) venom exposed to RuCl3 dissolved in PBS condition (V+R/P)—venom and 100 μM RuCl3 1% addition (v/v) in PBS to plasma. All the solutions used for these five conditions to be placed in plasma remained at room temperature for five minutes prior to addition.

[3] = venom exposed 5 min to 100 μM RuCl3 in PBS vs RuCl3 naïve venom, venom 125 ng/ml

| Structure (SMILES) | CORM-2/ iRM Inhibition (Atheris nitschei venom) | anticoagulant effects of venom in vitro [1] | neurotoxic, anticoagulant PLA2 activity ([2]; RuCl3 dissolved in PBS, 100 μM) | decrease in TMRTG values [2, 3] [%] | increase in MRTG values [2, 3] [%] | increase in TTG values [2, 3] [%] | TMRTG, MRTG or TTG values ([2]; venom exposed to 100 μM RuCl3 in PBS vs control condition (no venom)) |
| --- | --- | --- | --- | --- | --- | --- | --- |
| [C-]#[O+].[C-]#[O+].[C-]#[O+].[C-]#[O+].[C-]#[O+].[C-]#[O+].[Cl][Ru][Cl].[Cl][Ru][Cl] [CORM-2, tricarbonyldichlororuthenium(II) dimer] | Yes | very effectively abrogated | – | – | – | – | – |
| [Cl][Ru]([Cl])[Cl] [RuCl3, ruthenium(III) chloride] | – | – | inhibited | 47 | 375 | 231 | no significant differences |
